Results taken from patent US10308608B2, “Histone deacetylase inhibitors” (BIOMARIN PHARMACEUTICAL INC., priority 2015, dated 2019).
Structures can show the parent of a compound that is named as a salt.

system: Frataxin (FXN) mRNA; assay: Effect of HDAC inhibitors on frataxin (FXN) mRNA expression, qRT-PCR in compound-treated iPSC derived neuronal cells; assay type: cell-based; conditions: iPSC, 24 h, compound concentration of 0.625 μM, 24 h incubation, read-out: FXN mRNA fold induction
Description: Effect of HDAC Inhibitors on Frataxin (FXN) mRNA Expression
Method: mRNA quantification of compound-treated iPSC derived neuronal cells Neuronal stem cells were cultured in Neurobasal A medium (Life technologies #10888022) supplemented with N2, B27 (Life technologies #17502-048 and #17504-044), L-glutamine (Life technologies #25030081), supplemented with 20 ng/ml EGF (R&D Systems #236-EG) and 20 ng/ml bFGF (BioPioneer # HRP-0011). Neuronal differentiation was initiated by removing growth factors and culturing cells in Neurobasal A with N2 and B27. Cells were allowed to differentiate for 16 days. HDAC inhibitory compound was then added and incubate for 24 h. RNA isolation was performed using the RNeasy Plus mini kit (QIAgen #74134) using a QIAcube instrument per manufacturer's instructions. qRT-PCR was performed using qScript One-Step SYBR Green qRT-PCR Kit (Quanta Biosciences 170-8893BR) with the following conditions: 20 minutes at 50° C., 5 minutes at 95° C., and then 40 cycles of 20 seconds at 95° C., 20 seconds at 55° C., 30 seconds at 72° C. The primer sequences to detect expression of FXN were: 5′-[…]-3′ and 5′-[…]-3′.
The data for the following compounds, for FXN mRNA fold induction at a compound concentration of 0.625 μM are shown in Table 1, where A<1, 1<B<2, 2<C<3, 3<D<5, E>5.

| SMILES | fold induction at 0.625 µM |
| --- | --- |
| Nc1ccccc1NC(=O)c1ccc(O[C@H]2CCN(CC3CC3)C2)cc1 [Compound 54, (S)-N-(2-aminophenyl)-4-((1-(cyclopropylmethyl)pyrrolidin-3-yl)oxy)benzamide dihydrochloride] | 1 to 2 |
| CC1(CN2CC[C@H](Oc3ccc(C(=O)Nc4ccccc4N)cc3)C2)CC1 [Compound 55, (S)-N-(2-aminophenyl)-4-((1-((1-methylcyclopropyl)methyl)pyrrolidin-3-yl)oxy)benzamide dihydrochloride] | 2 to 3 |
| Nc1ccccc1NC(=O)c1ccc(O[C@H]2CCN(CC3CCCCC3)C2)cc1 [Compound 56, (S)-N-(2-aminophenyl)-4-((1-(cyclohexylmethyl)pyrrolidin-3-yl)oxy)benzamide dihydrochloride] | 2 to 3 |
| Nc1ccccc1NC(=O)c1ccc(O[C@@H]2CCNC2)cc1 [Compound 57, (R)-N-(2-aminophenyl)-4-(pyrrolidin-3-yloxy)benzamide hydrochloride] | 2 to 3 |
| CN1CC[C@@H](Oc2ccc(C(=O)Nc3ccccc3N)cc2)C1 [Compound 58, (R)-N-(2-aminophenyl)-4-((1-methylpyrrolidin-3-yl)oxy)benzamide] | 2 to 3 |
| CC(C)CN1CC[C@@H](Oc2ccc(C(=O)Nc3ccccc3N)cc2)C1 [Compound 59, (R)-N-(2-aminophenyl)-4-((1-isobutylpyrrolidin-3-yl)oxy)benzamide dihydrochloride] | 1 to 2 |
| CC(C)(O)CN1CC[C@@H](Oc2ccc(C(=O)Nc3ccccc3N)cc2)C1 [Compound 60, (R)-N-(2-aminophenyl)-4-((1-(2-hydroxy-2-methylpropyl)pyrrolidin-3-yl)oxy)benzamide dihydrochloride] | 1 to 2 |
| CC(C)(C)CN1CC[C@@H](Oc2ccc(C(=O)Nc3ccccc3N)cc2)C1 [Compound 61, (R)-N-(2-aminophenyl)-4-((1-neopentylpyrrolidin-3-yl)oxy)benzamide] | 1 to 2 |
| Nc1ccccc1NC(=O)c1ccc(O[C@@H]2CCN(CC3CC3)C2)cc1 [Compound 62, (R)-N-(2-aminophenyl)-4-((1-(cyclopropylmethyl)pyrrolidin-3-yl)oxy)benzamide dihydrochloride] | 1 to 2 |
| CC1(CN2CC[C@@H](Oc3ccc(C(=O)Nc4ccccc4N)cc3)C2)CC1 [Compound 63, (R)-N-(2-aminophenyl)-4-((1-((1-methylcyclopropyl)methyl)pyrrolidin-3-yl)oxy)benzamide dihydrochloride] | 2 to 3 |
| Nc1ccccc1NC(=O)c1ccc(O[C@@H]2CCN(CC3CCCCC3)C2)cc1 [Compound 64, (R)-N-(2-aminophenyl)-4-((1-(cyclohexylmethyl)pyrrolidin-3-yl)oxy)benzamide dihydrochloride] | 2 to 3 |
| Nc1ccccc1NC(=O)c1ccc(OC2CCNCC2)cc1 [Compound 65, N-(2-aminophenyl)-4-(piperidin-4-yloxy)benzamide hydrochloride] | 2 to 3 |
| CN1CCC(Oc2ccc(C(=O)Nc3ccccc3N)cc2)CC1 [Compound 66, N-(2-aminophenyl)-4-((1-methylpiperidin-4-yl)oxy)benzamide dihydrochloride] | 1 to 2 |
| CC(C)CN1CCC(Oc2ccc(C(=O)Nc3ccccc3N)cc2)CC1 [Compound 67, N-(2-aminophenyl)-4-((1-isobutylpiperidin-4-yl)oxy)benzamide dihydrochloride] | 1 to 2 |
| CC1(CN2CCC(Oc3ccc(C(=O)Nc4ccccc4N)cc3)CC2)CC1 [Compound 68, N-(2-aminophenyl)-4-((1-((1-methylcyclopropyl)methyl)piperidin-4-yl)oxy)benzamide dihydrochloride] | 1 to 2 |
| Nc1ccccc1NC(=O)c1ccc(OC2CCN(CC3CCCCC3)CC2)cc1 [Compound 69, N-(2-aminophenyl)-4-((1-(cyclohexylmethyl)piperidin-4-yl)oxy)benzamide dihydrochloride] | 1 to 2 |
| Nc1ccccc1NC(=O)c1ccc(OC2CC3CCC(C2)N3)cc1 (stereo not drawn) [Compound 70, 4-((8-azabicyclo[3.2.1]octan-3-yl)oxy)-N-(2-aminophenyl)benzamide hydrochloride] | 1 to 2 |
| Nc1ccccc1NC(=O)c1ccc(NC2CCCNCC2)cc1 (stereo not drawn) [Compound 78, N-(2-aminophenyl)-4-(azepan-4-ylamino)benzamide tris(2,2,2-trifluoroacetate)] | 2 to 3 |
| CC(C)CN1CCCC(Nc2ccc(C(=O)Nc3ccccc3N)cc2)CC1 (stereo not drawn) [Compound 80, N-(2-aminophenyl)-4-((1-isobutylazepan-4-yl)amino)benzamide] | 2 to 3 |
| CC(C)(O)CN1CCCC(Nc2ccc(C(=O)Nc3ccccc3N)cc2)CC1 (stereo not drawn) [Compound 81, N-(2-aminophenyl)-4-((1-(2-hydroxy-2-methylpropyl)azepan-4-yl)amino)benzamide trihydrochloride] | 1 to 2 |
| Nc1ccccc1NC(=O)c1ccc(NC2CCCN(CC3CC3)CC2)cc1 (stereo not drawn) [Compound 83, N-(2-aminophenyl)-4-((1-(cyclopropylmethyl)azepan-4-yl)amino)benzamide trihydrochloride] | 2 to 3 |
| Nc1ccccc1NC(=O)c1ccc(NC2CCCN(CC3CCCCC3)CC2)cc1 (stereo not drawn) [Compound 85, N-(2-aminophenyl)-4-((1-(cyclohexylmethyl)azepan-4-yl)amino)benzamide] | 2 to 3 |
| Nc1ccccc1NC(=O)c1ccc(NC2CNC2)cc1 [Compound 86, N-(2-aminophenyl)-4-(azetidin-3-ylamino)benzamide trihydrochloride] | 2 to 3 |
| CN1CC(Nc2ccc(C(=O)Nc3ccccc3N)cc2)C1 [Compound 87, N-(2-aminophenyl)-4-((1-methylazetidin-3-yl)amino)benzamide tris(2,2,2-trifluoroacetate)] | 2 to 3 |
| CC(C)CN1CC(Nc2ccc(C(=O)Nc3ccccc3N)cc2)C1 [Compound 88, N-(2-aminophenyl)-4-((1-isobutylazetidin-3-yl)amino)benzamide trihydrochloride] | 1 to 2 |
| CC(C)(O)CN1CC(Nc2ccc(C(=O)Nc3ccccc3N)cc2)C1 [Compound 89, N-(2-aminophenyl)-4-((1-(2-hydroxy-2-methylpropyl)azetidin-3-yl)amino)benzamide] | 1 to 2 |
| CC(C)(C)CN1CC(Nc2ccc(C(=O)Nc3ccccc3N)cc2)C1 [Compound 90, N-(2-aminophenyl)-4-((1-neopentylazetidin-3-yl)amino)benzamide] | 2 to 3 |
| Nc1ccccc1NC(=O)c1ccc(NC2CN(CC3CC3)C2)cc1 [Compound 91, N-(2-aminophenyl)-4-((1-(cyclopropylmethyl)azetidin-3-yl)amino)benzamide trihydrochloride] | 1 to 2 |
| CC1(CN2CC(Nc3ccc(C(=O)Nc4ccccc4N)cc3)C2)CC1 [Compound 92, N-(2-aminophenyl)-4-((1-((1-methylcyclopropyl)methyl)azetidin-3-yl)amino)benzamide] | 2 to 3 |

same assay, conditions: iPSC, 24 h, read-out: FXN mRNA fold induction, compound concentration of 0.625 μM, 24 h incubation

| SMILES | fold induction at 0.625 µM |
| --- | --- |
| CN1C2CCC1CC(Oc1ccc(C(=O)Nc3ccccc3N)cc1)C2 (stereo not drawn) [Compound 71, N-(2-aminophenyl)-4-((8-methyl-8-azabicyclo[3.2.1]octan-3-yl)oxy)benzamide dihydrochloride] | 1 to 2 |
| CC(C)CN1C2CCC1CC(Oc1ccc(C(=O)Nc3ccccc3N)cc1)C2 (stereo not drawn) [Compound 72, N-(2-aminophenyl)-4-((8-isobutyl-8-azabicyclo[3.2.1]octan-3-yl)oxy)benzamide dihydrochloride] | 1 to 2 |
| CC(C)(O)CN1C2CCC1CC(Oc1ccc(C(=O)Nc3ccccc3N)cc1)C2 (stereo not drawn) [Compound 73, N-(2-aminophenyl)-4-((8-(2-hydroxy-2-methylpropyl)-8-azabicyclo[3.2.1]octan-3-yl)oxy)benzamide dihydrochloride] | 1 to 2 |
| CC(C)(C)CN1C2CCC1CC(Oc1ccc(C(=O)Nc3ccccc3N)cc1)C2 (stereo not drawn) [Compound 74, N-(2-aminophenyl)-4-((8-neopentyl-8-azabicyclo[3.2.1]octan-3-yl)oxy)benzamide dihydrochloride] | 1 to 2 |
| Nc1ccccc1NC(=O)c1ccc(OC2CC3CCC(C2)N3CC2CC2)cc1 (stereo not drawn) [Compound 75, N-(2-aminophenyl)-4-((8-(cyclopropylmethyl)-8-azabicyclo[3.2.1]octan-3-yl)oxy)benzamide dihydrochloride] | 1 to 2 |
| CC1(CN2C3CCC2CC(Oc2ccc(C(=O)Nc4ccccc4N)cc2)C3)CC1 (stereo not drawn) [Compound 76, N-(2-aminophenyl)-4-((8-((1-methylcyclopropyl)methyl)-8-azabicyclo[3.2.1]octan-3-yl)oxy)benzamide dihydrochloride] | 2 to 3 |
| Nc1ccccc1NC(=O)c1ccc(OC2CC3CCC(C2)N3CC2CCCCC2)cc1 (stereo not drawn) [Compound 77, N-(2-aminophenyl)-4-((8-(cyclohexylmethyl)-8-azabicyclo[3.2.1]octan-3-yl)oxy)benzamide dihydrochloride] | 1 to 2 |
